Data published in BindingDB's records for PubMed 10336515 (Banyu Pharmaceutical, 1999).

Experiments:
Endothelin-1 receptor = molecular target: T1, Endothelin-1 receptor (Homo sapiens, UniProt P25101)
T1 sequence (P25101 whole entry): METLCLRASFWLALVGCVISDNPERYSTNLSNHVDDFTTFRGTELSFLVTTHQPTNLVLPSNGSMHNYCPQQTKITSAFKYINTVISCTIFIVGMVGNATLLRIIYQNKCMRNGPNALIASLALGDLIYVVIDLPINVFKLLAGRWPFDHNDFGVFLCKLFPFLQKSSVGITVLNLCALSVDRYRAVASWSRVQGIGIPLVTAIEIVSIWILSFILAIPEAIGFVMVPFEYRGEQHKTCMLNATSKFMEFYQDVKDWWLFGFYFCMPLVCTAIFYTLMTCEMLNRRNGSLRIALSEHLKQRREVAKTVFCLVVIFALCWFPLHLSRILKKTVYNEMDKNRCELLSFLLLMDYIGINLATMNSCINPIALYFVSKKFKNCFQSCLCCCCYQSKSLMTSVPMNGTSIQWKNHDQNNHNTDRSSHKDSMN

[1] = molecular target: T2, Endothelin receptor type B (Homo sapiens, UniProt P24530)
T2 sequence (P24530 whole entry): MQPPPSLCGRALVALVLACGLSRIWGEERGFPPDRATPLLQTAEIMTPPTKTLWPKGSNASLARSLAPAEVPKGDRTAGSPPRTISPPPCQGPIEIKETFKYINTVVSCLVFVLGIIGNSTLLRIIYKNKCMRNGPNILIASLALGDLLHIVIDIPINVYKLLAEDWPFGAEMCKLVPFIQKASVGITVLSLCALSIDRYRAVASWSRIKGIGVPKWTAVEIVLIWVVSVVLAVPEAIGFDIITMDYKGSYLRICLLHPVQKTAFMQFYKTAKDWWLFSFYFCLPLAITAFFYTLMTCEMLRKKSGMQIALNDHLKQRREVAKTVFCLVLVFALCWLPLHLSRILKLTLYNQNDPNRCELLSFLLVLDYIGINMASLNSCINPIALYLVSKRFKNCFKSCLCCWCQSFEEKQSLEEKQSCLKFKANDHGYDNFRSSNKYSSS

Ki (Endothelin-1 receptor): 0.03 nM
Ki [1]: 0.1 nM
SMILES: CCCCc1ccc2c(n1)[C@@H](c1ccc(OC)cc1C[C@H](C)C(=O)O)[C@H](C(=O)O)[C@H]2c1ccc2c(c1)OCO2 [J-104132]
